{"source": "patent US20250265708A1", "about": "“METHOD AND SYSTEM FOR CONTRACTILITY ASSESSMENT OF CARDIAC ORGANOIDS BASED ON PARTICLE IMAGE VELOCIMETRY, PROGRAM FOR THE SAME, AND RECORDING MEDIUM STORING PROGRAM THEREOF” (Research & Business Foundation SUNGKYUNKWAN UNIVERSITY, priority 2024, published 2025)", "test_system": "cardiac organoid", "experiment": "Drug reaction experiment: PIV-based contractility analysis of cardiac organoid treated with isoprenaline", "type": "cell-based, human", "from_the_text": "Specifically, isoprenaline, which is a widely used […] (inotropic agent), is used to assess contractility of a cardiac organoid in response to drugs. […] As a result, the contraction-relaxation velocity profile and beating image of the cardiac organoids before drug treatment may be confirmed as shown in FIG. 10A and FIG. 10B, after drug treatment as shown in FIG. 10C and FIG. 10D, and 1 day after drug withdrawal as shown in FIG. 10E and FIG. 10F.", "key": {"[1]": {"conditions": "cardiac organoid, after treating for 15 minutes with isoprenaline, vs before drug treatment"}}}
{"smiles": "CC(C)NCC(O)c1ccc(O)c(O)c1", "note": "(stereo not shown) [isoprenaline]", "values": [{"measurement": "heart beating of the organoid", "setting": "1 day after drug withdrawal", "result": "returned to before the drug treatment"}, {"measurement": "average contraction duration", "setting": "[1]", "result": "reduced"}, {"measurement": "contraction time to peak", "setting": "[1]", "result": "reduced"}, {"measurement": "heart beating rate", "setting": "cardiac organoid, after treating for 15 minutes with isoprenaline, vs before drug treatment (24.3±3.22 BPM)", "result": "increased significantly"}]}
